Laboratory results taken from patent publication US20220089661A1 (priority 2019, published 2022).
Several values for one entry are separate records, joined by “and”; a condition that tells them apart may be missing. Identical values can stand only once.

Key:
Type in all cases: cell-based
Botrytis cinerea [1] = tested on: Botrytis cinerea
Botrytis cinerea [2] = tested on: Botrytis cinerea; remark: listed apart in the source
Fusarium graminearum [3] = tested on: Fusarium graminearum
Fusarium graminearum [4] = tested on: Fusarium graminearum; remark: listed apart in the source

“OeDef7 (RICESLSHRFKGPCVRRGNCAAVCQTEGFPGGLCRGFRRRCFCTKHC; listed as Olea europaea)” was tested, and the IC50 (Botrytis cinerea [1]) was 2 to 3 µM and 3 to 4 µM, the MLC (Botrytis cinerea [2]) was 4 µM and 6 µM and the IC50 (Fusarium graminearum [3]) was 1 to 1.5 µM and 2 to 3 µM. The MLC (Fusarium graminearum [4]) was 3 µM and 6 µM.
